# Assay results taken from patent US10745393B2, “Small molecular probes, processes and use thereof” (JAWAHARLAL NEHRU CENTRE FOR ADVANCED SCIENTIFIC RESEARCH, priority 2014, dated 2020).
# Several values for one entry are separate records, joined by “and”; a condition that tells them apart may be missing. Identical values can stand only once. Entries after “also recorded” stand apart in the source; their conditions may differ. Marks after values point to notes of the source that are not given here.
# Key:
# [1] = tested on: cells; test: Comparison of DNA dyes: cell permeability; type: cell-based; conditions: Table 3, probe of the disclosure
# [2] = tested on: ssDNA oligonucleotides (dA10, dT10, dG10 and dC10); test: Fluorescence emission in presence of ssDNA oligonucleotides; type: binding; conditions: probe 10 μM, Tris-HCl buffer
# [3] = tested on: HepG2 cells; test: Confocal fluorescence staining of mammalian cells at low probe concentration; type: cell-based, human; conditions: (FIG. 44 legend 2 μM)
# [4] = target: T1, islet amyloid polypeptide (IAPP) aggregates (Homo sapiens, UniProt P10997); test: Selectivity: fluorescence with IAPP aggregates; type: binding; conditions: IAPP aggregates 20 μM
# T1 construct: A 0.1 mg (Merck, calbiochem) sample of amylin is dissolved in 100 μL of acetonitrile; purchased Merck, calbiochem
# [5] = tested on: (D1)mix; test: Agarose gel electrophoresis staining of dsDNA band; type: binding; conditions: 3% agarose gel, about 0.6 μg dsDNA, UV-illumination
# [6] = tested on: (AT)20; test: Agarose gel electrophoresis staining of dsDNA band; type: binding; conditions: 3% agarose gel, about 0.6 μg dsDNA, UV-illumination
# [7] = target: T2, Aβ42 aggregates (Homo sapiens, UniProt P05067); test: Binding saturation assay (fluorescence) for binding constant
# [8] = target: ThT/Aβ42 aggregate complex (Homo sapiens, UniProt P05067); test: ThT displacement / FRET assay; type: binding; conditions: decay at 483 nm, enhancement at 654 nm
# [9] = tested on: (AT)20-Hoechst 33258 complex; test: Competitive binding / FRET / CD study with preformed Hoechst complex; conditions: Hoechst 4 μM + (AT)20, TC 0 to 40 μM, CD signal
# [10] = target: T2, Aβ42 aggregates; test: Absorption / fluorescence response with Aβ42 fibrillar aggregates; type: binding
# [11] = Absorption, emission and quantum yield of probes in Tris-HCl buffer without DNA; type: physicochemical
# [12] = target: Aβ42 fibrillar aggregates (Homo sapiens, UniProt P05067); test: pH-dependent colorimetric and fluorometric response; type: binding; conditions: TC 10 μM, PBS buffer
# [13] = tested on: Plasmodium falciparum; test: Live cell fluorescence imaging of malaria parasites in erythrocytes; type: cell-based, P. falciparum 3D7 strain; conditions: (FIG. 38 legend 1 and 2 μM), 30 minutes
# [14] = tested on: d(AATT)5; test: Absorption / fluorescence response with self-complementary d(AATT)5 duplex; type: binding
# [15] = tested on: (AT)10; test: Thermal denaturation (UV-melting) of dsDNA with probe TC; type: binding
# [16] = target: α-Synuclein (α-Syn) aggregates (Homo sapiens, UniProt P37840); test: Selectivity: fluorescence with α-synuclein aggregates; type: binding; conditions: α-Syn aggregates 20 μM
# [17] = tested on: calf-thymus DNA (ct-DNA); test: Fluorescence response in presence of calf-thymus DNA; type: binding; conditions: TC 10 μM, ct-DNA 200 μg/mL
# From the text: Furthermore, the fluorescence response of TC in presence of calf-thymus DNA (ct-DNA) is also studied.
# [18] = tested on: (GC)10; test: Fluorescence response / quantum yield of probes with dsDNA (GC)10; type: binding
# [19] = tested on: (D1)mix; test: Fluorescence response / quantum yield of probes with dsDNA (D1)mix; type: binding
# [20] = tested on: (AT)20; test: Fluorescence response / quantum yield of probes with dsDNA (AT)20; type: binding
# [21] = tested on: HEK293 cells; test: Nuclear staining with cytoplasmic marker α-tubulin; type: cell-based; conditions: TC 5 μM
# [22] = tested on: (D1)mix; test: Thermal denaturation (UV-melting) of dsDNA with probe TC; type: binding
# [23] = tested on: HEK293 cells; test: MTT cytotoxicity assay; type: cell-based
# Protocol: 10,000 HEK293 cells are seeded in 96-well plate and cultured for about 12 hours. […] Water is used as a control. About 20 μL of MTT (about 5 mg/mL) is added in each well, incubated for about 3 hours at about 37° C. and about 100 μL of DMSO is added. Readings are taken at about 570 nm in ELISA reader (VERSA Max microplate reader, Molecular Devices). The data is normalized with control and plotted with mean and standard error.
# [24] = tested on: (D2)mix; test: Agarose gel electrophoresis staining of dsDNA band; type: binding; conditions: 3% agarose gel, about 0.6 μg dsDNA, UV-illumination
# [25] = tested on: (D2)mix; test: Fluorescence response of probes with dsDNA (D2)mix; type: binding
# [26] = tested on: (AT)10; test: Absorption / fluorescence response of probes with dsDNA (AT)10; type: binding; conditions: probe 10 μM
# [27] = tested on: cells; test: Comparison of DNA dyes: toxicity; type: cell-based; conditions: Table 3, probe of the disclosure
# From the text: The major advantages of probe TC are: longer excitation/emission wavelengths (which avoids the cell damage due to the UV-light absorption commonly observed with probes like DAPI and Hoechst dyes, and auto-fluorescence from the cellular organelles and biomolecules), larger stoke shift (this provides additional advantage that avoids the self-absorption of higher energy part of their emission, useful in FRET and BRET based assays), good cell permeability (this is the major limitation of existing probes like propidium iodide, TO-PRO-dyes), non-toxicity (toxicity is the major limitation of NIR-fluorescence probes like DRAQ5 probe) and specific staining (commonly observed with SYTO and other dyes are non-specific in nature). Many commercial/reported dyes in literature are known to bind single stranded DNA, RNA etc. The probe TC is highly specific to double stranded DNA. […] In presence of AT-rich DNA, TC is a better probe than EtBr and PI which are highly toxic to cells.
# [28] = tested on: (GC)10; test: Agarose gel electrophoresis staining of dsDNA band; type: binding; conditions: 3% agarose gel, about 0.6 μg dsDNA, UV-illumination
# [29] = tested on: DNA; test: Comparison of DNA dyes: sequence selectivity and fluorescence of free/DNA bound dye; type: binding
# [30] = Tris-HCl buffer (100 mM, pH 7.4)
# [31] = increasing concentrations of TC (1 μM to 20 μM), FIG. 10
# [32] = Table 3, probe of the disclosure
# T2 sequence (P05067 672-713 limits assumed): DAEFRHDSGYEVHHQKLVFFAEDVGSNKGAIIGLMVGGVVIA
# Chain of Aβ42 fibrillar aggregates (P05067 672-713 limits assumed): as above
# T1 sequence (P10997 34-70 limits assumed): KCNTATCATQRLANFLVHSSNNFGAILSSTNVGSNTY
# Chain of ThT/Aβ42 aggregate complex (P05067 672-713 limits assumed, one chain of several): as the sequence (P05067 672-713 limits assumed) above
structure (smiles),measurement,setting,value
"CCN(CC)c1ccc2cc(/C=C/c3sc4ccccc4[n+]3C)c(=O)oc2c1 [TC, (E)-3-(2-(N-methyl-benzo[d]thiazol-2-yl)vinyl)-7-(diethylamino)-2H-chromen-2-one]",Cell permeability,[1],Permeable
same,emission behaviour in presence of ssDNA,[2],do not show significant changes in the emission behaviour
same,fluorescence / uptake in HepG2 cells,[3],does not show any detectable fluorescence; also recorded: No detectable uptake
same,fluorescence enhancement with IAPP aggregates,[4],does not lead to significant fluorescence enhancements
same,gel staining of (D1)mix band,[5],strong fluorescence intensity
same,gel staining of (AT)20 band,[6],strong fluorescence intensity
same,association constant Ka,[7]; 2 μM of Aβ42 aggregates,1.72e+07 M⁻¹
same,Kd,"[7]; fluorescence saturation curve, Aβ42 aggregates 10 μM (QC) or 2 μM (TC), read-out: dissociation constant Kd",0.058 ± 0.0012 µM
same,displacement of ThT from ThT/Aβ42 aggregate complex,[8],effective displacement of ThT by TC
same,competition with Hoechst for minor groove binding site,[9],not competing with Hoechst for binding site in the minor groove of dsDNA
same,absorption maximum TC/fibril,[10]; Experiment,595 nm
same,quantum yield upon binding with Aβ42 aggregates,[10]; TC 2 μM,40%
same,persistence of fluorescence of stained Aβ42 aggregates,[10]; aging,retain red fluorescence even after 50 days of aging
same,emission maximum in presence of Aβ42 aggregates,[10]; probe 2 μM,654 nm
same,fluorescence enhancement in presence of Aβ42 aggregates,"[10]; probe 2 μM, PBS buffer",~30 fold
same,ΦF in Buffer,"[11]; Tris-HCl buffer (100 mM, pH 7.4), absence of DNA",0.03
same,emission (fluorescence) maxima,"[11]; Tris-HCl buffer, no DNA, very weak fluorescence",641 nm
same,absorption maxima,"[11]; probe 10 μM, Tris-HCl buffer, no DNA",528 nm
same,pH range in which colorimetric and emission properties with Aβ42 aggregates are unaffected / usable,[12],3 to 8 and 2-8
same,staining of trophozoite stage parasites in red blood cells,[13],specifically binds to the parasite cells within the red blood cells; also recorded: accumulated specifically in the nucleus of the parasitized red blood cell
same,fluorescence enhancement in presence of d(AATT)5,[14],~16 folds
same,Tm(DNA + TC),[15],25.6 °C
same,fluorescence enhancement with α-Syn aggregates,[16],does not lead to significant fluorescence enhancements
same,fluorescence response in presence of ct-DNA,[17],strong fluorescence enhancement
same,ΦF with (GC)10,[18]; [30],0.04
same,fluorescence change in presence of (GC)10,[18]; probe 10 μM,does not show such fluorescence enhancement
same,fluorescence enhancement in presence of (D1)mix,"[19]; TC 10 μM, DNA 0 to 12 μM",~6 fold
same,ΦF with (D1)mix,[19]; [30],0.11
same,fluorescence enhancement in presence of (D1)mix,[19]; [31],~6 fold
same,fluorescence enhancement in presence of (AT)20,"[20]; TC 10 μM, DNA 0 to 12 μM",~16 fold
same,ΦF with (AT)20,[20]; [30],0.36
same,comparative fluorescence response in presence of (AT)20,"[20]; dye 10 μM, Tris-HCl buffer",excellent fluorescence marker
same,probe concentration at which fluorescence reaches saturation,[20]; fixed dsDNA 12 μM,18 to 22 µM
same,fluorescence enhancement in presence of (AT)20,[20]; [31],~16 fold
same,co-localization with cytoplasmic marker α-tubulin,[21],does not co-localize with cytoplasmic marker α-tubulin
same,Tm(DNA + TC),[22],61.6 °C
same,"cytotoxicity, dose dependent MTT","[23]; HEK293 cells, 2.5, 5 and 7.5 μM, about 30 minutes",non-toxic
same,viable cells,"[23]; HEK293 cells, about 5 μM TC, about 24 hours",about 64%
same,gel staining of (D2)mix band,[24],strong fluorescence intensity
same,fluorescence enhancement in presence of (D2)mix,"[25]; TC 10 μM, DNA 0 to 12 μM",~1.5 fold
same,fluorescence enhancement in presence of (D2)mix,[25]; [31],~1.5 fold
same,emission maxima in presence of (AT)10,[26],616 nm
same,fluorescence enhancement in presence of (AT)10,[26]; DNA 0 to 12 μM,~8 fold
same,Toxicity,[27],Non-Toxic
same,gel staining of (GC)10 band,[28],not stained
same,Fluorescence maxima DNA bound dye,[29]; [32],610 nm
same,Fluorescence maxima free dye,[29]; [32],641 nm
same,Fluorescence qauntum yield (ΦF) DNA bound dye,"[29]; Table 3, superscript b",0.36^b
same,"preferential binding affinity, AT-sites versus GC-sites",[29]; fluorescence studies with dsDNAs,towards AT-sites than GC-sites
